Assay [1] concerns the target T1, human ether a go-go related gene (hERG) K+ channel (Homo sapiens, UniProt Q12809).
T1 construct: Chinese Hamster Ovary cell line stably expressing the full-length hERG potassium channel; expressed in transfected cells
Nature of the assay: hERG inhibition assay, QPatch HTX automated electrophysiology. Type of assay: cell-based. Conditions: CHO cell line stably expressing hERG, whole-cell patch clamp, maximum test concentration 300 μM.
Description: The compounds were tested for inhibition of the human ether a go-go related gene (hERG) K+ channel using QPatch HTX automated electrophysiology.
Compounds were solubilised to 100 mM in DMSO before dilution in HBPS to 300 μM.
Electrophysiological recordings were made from a Chinese Hamster Ovary cell line stably expressing the full-length hERG potassium channel. Single cell ionic currents were measured in whole-cell patch clamp configuration at room temperature (21-23° C.) using the QPatch HTX platform (Sophion). Intracellular solution contained (mM): 120 KF, 20 KCl, 10 EGTA, 10 HEPES and was buffered to pH 7.3. […] Cells were clamped at a holding potential of −80 mV. […] This sweep was repeated 10 times at 10 s intervals. hERG currents were measured from the tail step and referenced to the holding current. Compounds were then incubated for 2 minutes prior to a second measurement of ion channel current using an identical pulse train.

Assay [2] deals with Acinetobacter baumannii ATCC 19606. Nature of the assay: Minimum Inhibitory Concentration (MIC) in LB media. Particulars: Acinetobacter baumannii, ATCC19606. In kind it is cell-based.
Description: Bacterial cultures that are stored as glycerol stocks at −80° C. are sub cultured on LB agar plates to obtain isolated colonies. A single colony of each strain is cultured in LB broth. […] Test compounds are dissolved in dimethyl sulfoxide (DMSO) to a stock concentration of 4 mg/ml. A twofold dilution series of this DMSO stock is prepared in a 96 well V bottom microtitre plate from rows A to H. A 3 μL volume of these dilutions are transferred to a 96-well flat bottom microtitre assay plate. Controls to monitor the effects of DMSO and media sterility are included. Each well is inoculated with 150 μL of the above diluted culture. The plates are incubated at 37° C. overnight in a humidified incubator. The following morning, the plates are read using a Spectrophotometer at 600 nm wavelength.
Assay [3] concerns the target E. coli topoisomerase IV (Escherichia coli, UniProt P0AFI2+P20083). Nature of the assay: biochemical. Conditions: decatenation assay; read-out: E. coli Topo IV IC50.
Assay [4] deals with Klebsiella pneumoniae ATCC 13883. Nature of the assay: Minimum Inhibitory Concentration (MIC) in LB media. Particulars: Klebsiella pneumoniae, ATCC13883, read-out: Minimum Inhibitory Concentration K. pneumoniae ATCC 13883. In kind it is cell-based. The text has this:
(§1) The compounds of Formula (I) are of interest due to their potent antibacterial effects. The ability of the invention compounds disclosed herein to achieve an antibacterial effect may be evaluated with regard to their ability to inhibit the growth of bacterial species like Escherichia coli ATCC 25922, Staphylococcus aureus ATCC 29213, Klebsiella pneumoniae ATCC 13883, Acinetobacter baumannii ATCC 19606, Pseudomonas aeruginosa ATCC 27853, Enterococcus faecalis ATCC 29212 and Enterococcus faecalis ATCC 29212 using an assay based on the following Minimum Inhibitory Concentration (MIC) protocol:
(§2) The medium sterility is checked by incubating at 37° C. for a period of 48 h.
(§3) Bacterial cultures that are stored as glycerol stocks at −80° C. are sub cultured on LB agar plates to obtain isolated colonies. A single colony of each strain is cultured in LB broth. The cultures are incubated at 37 C, 200 rpm till they reach an optical density (OD at 600 nm) of 0.8 to 1. […] Test compounds are dissolved in dimethyl sulfoxide (DMSO) to a stock concentration of 4 mg/ml. A twofold dilution series of this DMSO stock is prepared in a 96 well V bottom microtitre plate from rows A to H. A 3 μL volume of these dilutions are transferred to a 96-well flat bottom microtitre assay plate. Controls to monitor the effects of DMSO and media sterility are included. Each well is inoculated with 150 μL of the above diluted culture. The plates are incubated at 37° C. overnight in a humidified incubator. The following morning, the plates are read using a Spectrophotometer at 600 nm wavelength. […] The antibacterial activity (MIC) determined against representative Gram positive (S. aureus, E. faecalis) and Gram negative (E.coli, -P. aeruginosa and A. baumannii) pathogen were reported Table 1.

In assay [5] the test system is Escherichia coli ATCC 25922. Nature of the assay: Minimum Inhibitory Concentration (MIC) in LB media. Particulars: Escherichia coli, ATCC25922, read-out: Minimum Inhibitory Concentration E. coli ATCC 25922. In kind it is cell-based.
Text: as §1, §2, §3

For assay [6], the system named is Enterococcus faecalis ATCC 29212. The assay can be described thus: Minimum Inhibitory Concentration (MIC) in LB media. Type of assay: cell-based. Particulars: Enterococcus faecalis, ATCC29212, read-out: Minimum Inhibitory Concentration E. faecalis ATCC 29212.
Text: as §1, §2, §3

The subject of assay [7] is Staphylococcus aureus ATCC 29213. Nature of the assay: Minimum Inhibitory Concentration (MIC) in LB media. In kind it is cell-based. Particulars: Staphylococcus aureus, ATCC29213, read-out: Minimum Inhibitory Concentration S. aureus ATCC 29213.
Text: as §1, §2, §3

The subject of assay [8] is Pseudomonas aeruginosa ATCC 27853. Nature of the assay: Minimum Inhibitory Concentration (MIC) in LB media. In kind it is cell-based. Particulars: Pseudomonas aeruginosa, ATCC27853, read-out: Minimum Inhibitory Concentration P. aeruginosa ATCC 27853.
Text: as §1, §2, §3

Assay [9] has as its target E. coli DNA gyrase (Escherichia coli, UniProt P0AES4+P0AES6). Nature of the assay: biochemical. Particulars: supercoiling assay.
The test system of assay [10] is K. pneumoniae [ATCC13883]. The assay can be described thus: Neutropenic thigh infection model in rat. Type of assay: in vivo. Particulars: 10 mg/kg, i.v. bolus, neutropenic rat.

Converted amounts (≈) assume the structure as drawn. “And” between values parts separate entries of the source, which are not always exact repeats. Identical values can stand only once.

Sequence of E. coli topoisomerase IV (P20083 whole entry): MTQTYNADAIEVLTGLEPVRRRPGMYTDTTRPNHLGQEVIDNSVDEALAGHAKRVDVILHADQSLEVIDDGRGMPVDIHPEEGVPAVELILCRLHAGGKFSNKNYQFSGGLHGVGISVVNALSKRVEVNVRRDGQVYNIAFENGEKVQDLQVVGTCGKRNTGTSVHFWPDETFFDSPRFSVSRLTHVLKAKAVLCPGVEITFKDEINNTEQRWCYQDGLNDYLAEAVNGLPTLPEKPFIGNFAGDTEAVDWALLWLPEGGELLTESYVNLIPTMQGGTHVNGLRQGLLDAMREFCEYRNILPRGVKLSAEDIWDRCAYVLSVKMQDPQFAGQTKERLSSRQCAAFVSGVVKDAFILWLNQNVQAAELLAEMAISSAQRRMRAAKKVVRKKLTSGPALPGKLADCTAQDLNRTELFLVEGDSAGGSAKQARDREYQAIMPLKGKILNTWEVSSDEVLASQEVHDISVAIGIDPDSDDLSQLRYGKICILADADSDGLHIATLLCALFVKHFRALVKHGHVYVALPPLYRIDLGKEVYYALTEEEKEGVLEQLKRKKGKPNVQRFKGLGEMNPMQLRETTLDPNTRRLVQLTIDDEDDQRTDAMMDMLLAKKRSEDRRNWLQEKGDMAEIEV
Sequence of E. coli topoisomerase IV (P0AFI2 whole entry): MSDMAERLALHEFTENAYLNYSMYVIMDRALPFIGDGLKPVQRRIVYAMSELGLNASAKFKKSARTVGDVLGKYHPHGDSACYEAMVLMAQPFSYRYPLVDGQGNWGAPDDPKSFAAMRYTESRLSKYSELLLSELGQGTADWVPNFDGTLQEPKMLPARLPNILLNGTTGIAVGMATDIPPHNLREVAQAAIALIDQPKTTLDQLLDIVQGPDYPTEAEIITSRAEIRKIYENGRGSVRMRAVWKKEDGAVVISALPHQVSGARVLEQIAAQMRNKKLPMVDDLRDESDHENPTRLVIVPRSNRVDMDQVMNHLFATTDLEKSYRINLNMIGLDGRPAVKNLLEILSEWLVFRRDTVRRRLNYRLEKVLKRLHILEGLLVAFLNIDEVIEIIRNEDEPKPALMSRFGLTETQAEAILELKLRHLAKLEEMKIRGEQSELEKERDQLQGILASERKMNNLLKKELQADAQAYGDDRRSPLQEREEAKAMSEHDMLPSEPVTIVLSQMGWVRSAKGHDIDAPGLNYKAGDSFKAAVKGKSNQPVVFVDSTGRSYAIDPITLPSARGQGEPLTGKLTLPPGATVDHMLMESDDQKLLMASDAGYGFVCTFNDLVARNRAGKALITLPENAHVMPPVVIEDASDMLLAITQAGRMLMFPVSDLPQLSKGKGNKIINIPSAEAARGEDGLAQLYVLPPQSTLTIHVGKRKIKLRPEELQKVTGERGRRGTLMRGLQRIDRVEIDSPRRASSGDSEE
Sequence of E. coli DNA gyrase (P0AES4 whole entry, one chain of several): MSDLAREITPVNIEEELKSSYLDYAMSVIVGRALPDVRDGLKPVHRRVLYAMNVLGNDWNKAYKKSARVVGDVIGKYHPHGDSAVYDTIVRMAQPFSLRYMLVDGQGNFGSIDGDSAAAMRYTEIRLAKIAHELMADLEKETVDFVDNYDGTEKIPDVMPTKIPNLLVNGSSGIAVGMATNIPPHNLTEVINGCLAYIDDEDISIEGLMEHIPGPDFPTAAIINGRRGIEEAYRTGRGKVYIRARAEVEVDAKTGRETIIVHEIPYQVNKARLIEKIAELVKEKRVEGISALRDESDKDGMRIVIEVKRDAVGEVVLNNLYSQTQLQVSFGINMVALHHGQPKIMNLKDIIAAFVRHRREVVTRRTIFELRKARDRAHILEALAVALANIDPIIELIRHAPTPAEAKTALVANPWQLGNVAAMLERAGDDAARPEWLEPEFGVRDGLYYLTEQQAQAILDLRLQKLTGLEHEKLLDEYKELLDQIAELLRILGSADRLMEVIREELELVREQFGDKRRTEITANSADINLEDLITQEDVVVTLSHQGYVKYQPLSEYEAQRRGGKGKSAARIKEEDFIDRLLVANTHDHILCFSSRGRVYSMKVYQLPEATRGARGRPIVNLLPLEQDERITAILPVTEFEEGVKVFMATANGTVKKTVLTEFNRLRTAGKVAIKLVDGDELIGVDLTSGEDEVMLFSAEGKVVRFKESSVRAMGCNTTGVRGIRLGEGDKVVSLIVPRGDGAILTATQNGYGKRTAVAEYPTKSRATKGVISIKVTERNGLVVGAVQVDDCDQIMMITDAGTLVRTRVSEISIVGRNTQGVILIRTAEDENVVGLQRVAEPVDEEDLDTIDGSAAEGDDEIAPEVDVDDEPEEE
T1 sequence (Q12809 whole entry): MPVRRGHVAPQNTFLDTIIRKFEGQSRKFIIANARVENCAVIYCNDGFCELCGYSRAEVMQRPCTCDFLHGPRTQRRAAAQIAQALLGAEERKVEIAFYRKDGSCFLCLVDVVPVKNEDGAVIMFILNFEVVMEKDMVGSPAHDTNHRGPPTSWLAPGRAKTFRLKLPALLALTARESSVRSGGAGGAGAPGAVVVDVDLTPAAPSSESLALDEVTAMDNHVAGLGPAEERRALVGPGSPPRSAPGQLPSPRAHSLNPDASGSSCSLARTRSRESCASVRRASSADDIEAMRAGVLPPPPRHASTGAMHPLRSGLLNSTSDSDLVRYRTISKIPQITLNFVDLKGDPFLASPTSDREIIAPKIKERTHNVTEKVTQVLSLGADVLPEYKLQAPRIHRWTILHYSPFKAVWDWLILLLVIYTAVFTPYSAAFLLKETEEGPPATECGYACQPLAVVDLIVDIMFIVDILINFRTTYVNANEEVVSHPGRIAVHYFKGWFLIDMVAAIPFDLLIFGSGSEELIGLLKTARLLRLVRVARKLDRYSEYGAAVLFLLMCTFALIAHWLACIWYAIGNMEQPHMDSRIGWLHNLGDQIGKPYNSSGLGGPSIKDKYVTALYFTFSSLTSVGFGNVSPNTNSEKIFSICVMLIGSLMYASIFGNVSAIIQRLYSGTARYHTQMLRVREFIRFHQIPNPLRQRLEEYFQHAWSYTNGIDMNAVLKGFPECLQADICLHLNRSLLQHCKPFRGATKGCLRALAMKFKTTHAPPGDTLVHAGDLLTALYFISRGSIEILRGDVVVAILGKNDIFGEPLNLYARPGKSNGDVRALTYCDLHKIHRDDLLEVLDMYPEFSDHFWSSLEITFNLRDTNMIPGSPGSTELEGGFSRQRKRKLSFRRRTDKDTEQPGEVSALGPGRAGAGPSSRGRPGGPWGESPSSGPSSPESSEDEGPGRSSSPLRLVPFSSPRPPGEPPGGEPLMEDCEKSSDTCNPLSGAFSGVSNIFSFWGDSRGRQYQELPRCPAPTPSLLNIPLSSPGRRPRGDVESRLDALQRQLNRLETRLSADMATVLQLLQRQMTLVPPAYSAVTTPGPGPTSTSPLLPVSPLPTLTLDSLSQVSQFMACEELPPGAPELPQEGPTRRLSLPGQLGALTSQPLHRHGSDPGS

A word on the IC50: it is the point on the concentration scale where inhibition reaches its midpoint. On to `Cn1c(=O)ccc2ccc(F)c(CCNC[C@@H]3CN(c4cnc5c(n4)NC(=O)CO5)C(=O)O3)c21` [Example 14, (R)-6-(5-(((2-(7-fluoro-1-methyl-2-oxo-1,2-dihydroquinolin-8-yl)ethyl)amino)methyl)-2-oxooxazolidin-3-yl)-2H-pyrazino[2,3-b][1,4]oxazin-3(4H)-one], for which the IC50 worked out at 41000 nM in [1], 52 nM in [3] and 13 nM in assay [9]. The MIC in assay [2] is 0.25 µg/mL (≈ 0.534 µM); in [4], 0.06 µg/mL (≈ 0.128 µM); in assay [5], 0.06 µg/mL (≈ 0.128 µM); in assay [6], 0.06 µg/mL (≈ 0.128 µM); in assay [7] it was ≤ 0.015 µg/mL; in assay [8], 0.5 µg/mL (≈ 1.07 µM).

For `Cn1c(=O)ccc2ccc(F)c(CCCNC[C@H]3CN(c4cnc5c(n4)NC(=O)CO5)C(=O)O3)c21` [Example 22, (S)-6-(5-(((3-(7-fluoro-1-methyl-2-oxo-1,2-dihydroquinolin-8-yl)propyl)amino)methyl)-2-oxooxazolidin-3-yl)-2H-pyrazino[2,3-b][1,4]oxazin-3(4H)-one], the IC50 is 128000 nM in assay [1], 19 nM in assay [3] and 3.2 nM in assay [9]. The MIC was 0.015 µg/mL (≈ 0.0311 µM) in assay [2]; 0.06 µg/mL (≈ 0.124 µM) in assay [4]; 0.03 µg/mL (≈ 0.0622 µM) in assay [5]; 0.06 µg/mL (≈ 0.124 µM) in assay [6]; ≤ 0.015 µg/mL in assay [7]; 0.25 µg/mL (≈ 0.518 µM) in [8].

`Cn1c(=O)ccc2ccc(F)c(CCNC[C@H]3CN(c4ncc5c(n4)NC(=O)CO5)C(=O)O3)c21` [Example 16, (S)-2-(5-(((2-(7-fluoro-1-methyl-2-oxo-1,2-dihydroquinolin-8-yl)ethyl)amino)methyl)-2-oxooxazolidin-3-yl)-6H-pyrimido[5,4-b][1,4]oxazin-7(8H)-one]: the IC50 in assay [1] amounted to 204000 nM; in assay [3], 112 nM; in assay [9], 41 nM. For the same molecule, the MIC was 0.25 µg/mL (≈ 0.534 µM) in [2]; 0.25 µg/mL (≈ 0.534 µM) in [4]; 0.06 µg/mL (≈ 0.128 µM) in assay [5]; 0.25 µg/mL (≈ 0.534 µM) in assay [6]; 0.06 µg/mL (≈ 0.128 µM) in assay [7]; 1 µg/mL (≈ 2.13 µM) in assay [8].

Consider `O=C1COc2ccc(N3C[C@H](CNCCc4c(F)ccc5ccc(=O)n(CCO)c45)OC3=O)nc2N1` [Example 10, (S)-6-(5-(((2-(7-fluoro-1-(2-hydroxyethyl)-2-oxo-1,2-dihydroquinolin-8-yl)ethyl)amino)methyl)-2-oxooxazolidin-3-yl)-2H-pyrido[3,2-b][1,4]oxazin-3(4H)-one], for which the values for the IC50 in [1], in assay [3] and in [9] were 71000 nM, 30 nM and 5.9 nM, respectively. Further, the MIC was 0.125 µg/mL (≈ 0.251 µM) in assay [2]; 0.06 µg/mL (≈ 0.121 µM) in assay [4]; 0.03 µg/mL (≈ 0.0603 µM) in assay [5]; 0.06 µg/mL (≈ 0.121 µM) in assay [6]; 0.015 µg/mL (≈ 0.0302 µM) in [7]; 0.5 µg/mL (≈ 1.01 µM) in assay [8].

For `O=C(O)c1cn(C2CC2)c2cc(N3CCNCC3)c(F)cc2c1=O` [Ciprofloxacin, reference compound], the “MEAN ± SD (Log 10 CFU/g thigh)” value in assay [10] (10 hr post infection) is 3.28 ± 0.19 Log 10 CFU/g thigh. Also, in [10] (10 hr post infection), the “Mean Log10CFU/g thigh reduction (wrt 2 h PI control: 4.72 Log10CFU/g thigh)” value was 1.44 Log10CFU/g thigh. Besides, in [10] (individual animals, thigh harvested 10 hr post infection), the “Log 10 CFU/g thigh” value was 3.49 Log 10 CFU/g thigh and 3.11 Log 10 CFU/g thigh and 3.25 Log 10 CFU/g thigh. Moreover, the MIC in assay [4] came to 0.05 µg/mL (≈ 0.151 µM); in assay [5], 0.012 µg/mL (≈ 0.0362 µM); in assay [6] it was 0.4 µg/mL (≈ 1.21 µM); in assay [7], 0.4 µg/mL (≈ 1.21 µM); in assay [8], 0.1 µg/mL (≈ 0.302 µM).
